The target in test [1] is T1, human amylin 3(a) receptor (human calcitonin receptor + RAMP-3) in BHK570 cells (Homo sapiens, UniProt O60896+P30988).
T1 construct: expressed in transfected cells
In words: ASSAY (II)a functional assay, human amylin receptor (CRE luciferase). The format is cell-based. As to conditions: for EC50: human amylin receptor functional potency, assay (II), read-out: hAmylin-R funct. EC50. The method in brief:
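Cells were seeded and cultured overnight, then incubated with standard or sample for 3 h at 37° C in serum-containing medium at pH 7.4. The medium was then swapped for PBS, LucLite was added for 30 min at room temperature, and luminescence was recorded. Cells were BHK with CRE-luc and calcitonin receptor, ± RAMP-3.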

For test [2], the target named is T2, human amylin receptor (membranes from Amylin 3(a)/CRE-luc cells) (Homo sapiens, UniProt O60896+P30988).
T2 construct: expressed in transfected cells
T2 sequence (P30988 25-474): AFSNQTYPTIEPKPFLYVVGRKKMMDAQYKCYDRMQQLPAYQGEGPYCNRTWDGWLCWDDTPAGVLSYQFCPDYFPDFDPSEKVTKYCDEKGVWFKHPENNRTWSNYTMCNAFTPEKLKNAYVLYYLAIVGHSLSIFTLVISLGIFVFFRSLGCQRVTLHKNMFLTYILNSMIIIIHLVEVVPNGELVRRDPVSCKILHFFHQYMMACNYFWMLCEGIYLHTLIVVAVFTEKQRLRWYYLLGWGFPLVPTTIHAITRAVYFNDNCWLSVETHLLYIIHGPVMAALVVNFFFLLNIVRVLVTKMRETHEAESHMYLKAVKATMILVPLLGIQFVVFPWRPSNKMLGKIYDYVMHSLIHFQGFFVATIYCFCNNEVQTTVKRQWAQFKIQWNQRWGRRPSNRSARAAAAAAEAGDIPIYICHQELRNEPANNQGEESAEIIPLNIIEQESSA
T2 sequence (O60896 24-148 partner): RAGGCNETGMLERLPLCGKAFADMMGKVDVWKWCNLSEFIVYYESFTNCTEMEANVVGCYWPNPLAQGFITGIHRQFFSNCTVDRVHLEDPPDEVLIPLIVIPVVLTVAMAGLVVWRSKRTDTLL
In words: ASSAY (V) binding to the human amylin receptor (SPA, 125I-rat amylin).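 On all read-outs here: competition binding of cell membranes (35 ng/µL) mixed with SPA beads in 384-well plates at 40 µL total volume, read by scintillation counting.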 As to conditions: for IC50: Table 4, read-out: hAmylin-R bind IC50.

For a further test, the target named is T3, rat calcitonin receptor (Rattus norvegicus, UniProt P32214).
T3 construct: expressed in transfected cells; host or cells: BHK tk'ts 13 (transient, FuGENE 6), membranes
T3 sequence (P32214 25-479 isoform P32214-2 limits assumed): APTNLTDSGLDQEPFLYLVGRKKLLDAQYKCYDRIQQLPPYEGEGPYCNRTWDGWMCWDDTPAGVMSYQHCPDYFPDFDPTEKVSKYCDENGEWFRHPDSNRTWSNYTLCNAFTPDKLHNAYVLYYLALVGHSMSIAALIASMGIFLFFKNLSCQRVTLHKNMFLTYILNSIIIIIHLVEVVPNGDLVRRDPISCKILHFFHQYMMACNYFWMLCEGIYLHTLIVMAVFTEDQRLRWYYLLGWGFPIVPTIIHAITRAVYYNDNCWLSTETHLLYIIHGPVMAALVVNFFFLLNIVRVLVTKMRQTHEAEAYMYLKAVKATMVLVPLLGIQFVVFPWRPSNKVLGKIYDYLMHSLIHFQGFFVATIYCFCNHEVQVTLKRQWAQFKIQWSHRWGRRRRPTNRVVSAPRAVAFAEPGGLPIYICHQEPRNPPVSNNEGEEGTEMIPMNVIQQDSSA
Description: ASSAY (VIII) binding to the rat calcitonin receptor. As to conditions: Table 7, read-out: rCTR bind IC50. The method in brief:
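Membranes were prepared from BHK tk′ts 13 cells transiently transfected with rat calcitonin receptor. Cells were grown in DMEM with 10% FBS and harvested approximately 48 hours after transfection.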

Where [3] appears, read: hCTR funct. EC50 divided by hAmylin-R funct. EC50.
Where [4] appears, read: hCTR funct. EC50 over hAmylin-R funct. EC50.
Setting [5] is: human functional selectivity: hCTR funct. EC50 / hAmylin-R funct. EC50.
[6] abbreviates: Table 5, selectivity, hCTR bind IC50 / hAmylin-R bind IC50.
The mark [7] stands for this setting: Table 5a, selectivity, hCTR bind IC50 / hAmylin-R bind IC50.
The mark [8] stands for this setting: Table 5b, selectivity, hCTR bind IC50 / hAmylin-R bind IC50.
Where [9] appears, read: Table 5c, selectivity, hCTR bind IC50 / hAmylin-R bind IC50.
The mark [10] stands for this setting: Table 7, human binding selectivity, included for comparison.
Setting [11] is: Table 7a (preferred compounds), human binding selectivity, included for comparison.
Setting [12] is: ratio of human calcitonin receptor binding IC50 to human amylin receptor binding IC50.

Numbered stars: 1 amine (or outer) side, 2 acyl side, 3 side chain; on linkers, the order of the positions; unused ones are H or OH. Bridge positions count the residues as written; N and C are the ends. Side chains are listed from the residue outwards. Peptide text beside a SMILES is read from it. * marks the point of attachment. C20 diacid = O=C(O)CCCCCCCCCCCCCCCCCCC(=O)*; γGlu = O=C(O)[C@H](CCC(=O)[*:2])N[*:1]; AEEA = NCCOCCOCC(=O)O

Take `CC[C@H](C)[C@H](NC(=O)[C@H](C)NC(=O)CNC(=O)[C@H](Cc1ccccc1)NC(=O)[C@H](CC(N)=O)NC(=O)[C@@H]1CCCN1C(=O)[C@H](CO)NC(=O)[C@H](CO)NC(=O)[C@H](Cc1c[nH]cn1)NC(=O)[C@H](CCCNC(=N)N)NC(=O)[C@H](CC(C)C)NC(=O)[C@H](Cc1ccccc1)NC(=O)[C@H](CC(N)=O)NC(=O)[C@H](C)NC(=O)[C@H](CC(C)C)NC(=O)[C@H](CCCNC(=N)N)NC(=O)[C@H](CCC(N)=O)NC(=O)[C@@H](NC(=O)[C@H](C)NC(=O)[C@@H]1CSSC[C@H](NC(=O)[C@@H](N)CCCCNC(=O)COCCOCCNC(=O)CC[C@H](NC(=O)CCCCCCCCCCCCCCCCCCC(=O)O)C(=O)O)C(=O)N[C@@H](CC(N)=O)C(=O)N[C@@H]([C@@H](C)O)C(=O)N[C@@H](C)C(=O)N[C@@H]([C@@H](C)O)C(=O)N1)[C@@H](C)O)C(=O)N1CCC[C@H]1C(=O)N[C@@H](CO)C(=O)N[C@@H](CO)C(=O)N[C@H](C(=O)N1CCC[C@H]1C(=O)N[C@H](C(=O)NCC(=O)N[C@@H](CO)C(=O)N[C@@H](Cc1c[nH]cn1)C(=O)N[C@H](C(=O)N[C@@H](Cc1ccc(O)cc1)C(N)=O)[C@@H](C)O)C(C)C)[C@@H](C)O` [Example 57] (H-K([AEEA-γGlu-C20 diacid])CNTATCATQRLANFLRHSSPNFGAIPSSTPVGSHTY-NH2; disulfide 2-7; N-terminus assumed): the “Ratio hCT/hAmylin funct.” value in test [1] (setting [3]), in test [1] (setting [4]) and in test [1] (setting [5]) was 35.0 throughout. The EC50 in test [1] worked out at 0.089 nM. The IC50 in test [2] was 0.115 nM; on rat calcitonin receptor it was 24.4 nM. Also, the “Ratio hCT/hAmylin binding” value in test [2] (setting [6]), in test [2] (setting [7]), in test [2] (setting [8]), in test [2] (setting [9]), in test [2] (setting [10]) and in test [2] (setting [11]) was 133.0 in each case. The “Ratio hCT/hAmylin binding” value in test [2] (setting [12]) is given as 133.0.
For `CC[C@H](C)[C@H](NC(=O)[C@H](C)NC(=O)CNC(=O)[C@H](Cc1ccccc1)NC(=O)[C@H](CC(N)=O)NC(=O)[C@@H]1CCCN1C(=O)[C@H](CO)NC(=O)[C@H](CO)NC(=O)[C@H](Cc1c[nH]cn1)NC(=O)[C@H](CCCNC(=N)N)NC(=O)[C@H](CC(C)C)NC(=O)[C@H](Cc1ccccc1)NC(=O)[C@H](CC(=O)O)NC(=O)[C@H](C)NC(=O)[C@H](CC(C)C)NC(=O)[C@H](CCCNC(=N)N)NC(=O)[C@H](CCC(N)=O)NC(=O)[C@@H](NC(=O)[C@H](C)NC(=O)[C@@H]1CSSC[C@H](NC(=O)[C@@H](N)CCCCNC(=O)CC[C@H](NC(=O)CC[C@H](NC(=O)CCCCCCCCCCCCCCCCCCC(=O)O)C(=O)O)C(=O)O)C(=O)N[C@@H](CC(N)=O)C(=O)N[C@@H]([C@@H](C)O)C(=O)N[C@@H](C)C(=O)N[C@@H]([C@@H](C)O)C(=O)N1)[C@@H](C)O)C(=O)N1CCC[C@H]1C(=O)N[C@@H](CO)C(=O)N[C@@H](CO)C(=O)N[C@H](C(=O)N[C@@H](CC(N)=O)C(=O)N[C@H](C(=O)NCC(=O)N1CCC[C@H]1C(=O)N[C@@H](CCCNC(=N)N)C(=O)N[C@H](C(=O)N[C@@H](Cc1ccc(O)cc1)C(N)=O)[C@@H](C)O)C(C)C)[C@@H](C)O` [Example 130] (H-K([γGlu-γGlu-C20 diacid])CNTATCATQRLADFLRHSSPNFGAIPSSTNVGPRTY-NH2; disulfide 2-7 (inferred); N-terminus assumed), the “Ratio hCT/hAmylin funct.” value in test [1] (setting [3]), in test [1] (setting [4]) and in test [1] (setting [5]) was 44.9 throughout. Further, the “Ratio hCT/hAmylin binding” value in test [2] (setting [6]), in test [2] (setting [7]), in test [2] (setting [8]), in test [2] (setting [9]), in test [2] (setting [10]) and in test [2] (setting [11]) was 280.0 each time. In addition, in test [2] (setting [12]), the “Ratio hCT/hAmylin binding” value was 280.0. Also, the IC50 at rat calcitonin receptor came out at 223 nM.
As for `CC[C@H](C)[C@H](NC(=O)[C@H](C)NC(=O)CNC(=O)[C@H](Cc1ccccc1)NC(=O)[C@H](CC(N)=O)NC(=O)[C@@H]1CCCN1C(=O)[C@H](CO)NC(=O)[C@H](CO)NC(=O)[C@H](Cc1c[nH]cn1)NC(=O)[C@H](CCCNC(=N)N)NC(=O)[C@H](CC(C)C)NC(=O)[C@H](Cc1ccccc1)NC(=O)[C@H](CC(N)=O)NC(=O)[C@H](C)NC(=O)[C@H](CC(C)C)NC(=O)[C@H](CCCNC(=N)N)NC(=O)[C@H](CCC(N)=O)NC(=O)[C@@H](NC(=O)[C@H](C)NC(=O)[C@@H]1CSSC[C@H](NC(=O)[C@@H](N)CCCCNC(=O)CC[C@H](NC(=O)CCCCCCCCCCCCCCCCCCC(=O)O)C(=O)O)C(=O)N[C@@H](CC(N)=O)C(=O)N[C@@H]([C@@H](C)O)C(=O)N[C@@H](C)C(=O)N[C@@H]([C@@H](C)O)C(=O)N1)[C@@H](C)O)C(=O)N1CCC[C@H]1C(=O)N[C@@H](CO)C(=O)N[C@@H](CO)C(=O)N[C@H](C(=O)N[C@@H](CC(N)=O)C(=O)N[C@H](C(=O)NCC(=O)N[C@@H](Cc1c[nH]cn1)C(=O)N[C@@H](CC(N)=O)C(=O)N[C@H](C(=O)N[C@@H](Cc1ccc(O)cc1)C(N)=O)[C@@H](C)O)C(C)C)[C@@H](C)O` [Example 77], the “Ratio hCT/hAmylin funct.” value in test [1] (setting [3]), in test [1] (setting [4]) and in test [1] (setting [5]) was 37.3 throughout. The “Ratio hCT/hAmylin binding” value in test [2] (setting [6]), in test [2] (setting [7]), in test [2] (setting [8]), in test [2] (setting [9]), in test [2] (setting [10]) and in test [2] (setting [11]) was 118.4 each time. Further, the “Ratio hCT/hAmylin binding” value in test [2] (setting [12]) came out at 118.4. Besides, the IC50 at rat calcitonin receptor came to 205 nM.
Regarding `CC[C@H](C)[C@H](NC(=O)[C@H](C)NC(=O)CNC(=O)[C@H](Cc1ccccc1)NC(=O)[C@H](CC(N)=O)NC(=O)[C@@H]1CCCN1C(=O)[C@H](CO)NC(=O)[C@H](CO)NC(=O)[C@H](Cc1c[nH]cn1)NC(=O)[C@H](CCCNC(=N)N)NC(=O)[C@H](CC(C)C)NC(=O)[C@H](Cc1ccccc1)NC(=O)[C@H](CO)NC(=O)[C@H](C)NC(=O)[C@H](CC(C)C)NC(=O)[C@H](CCCNC(=N)N)NC(=O)[C@H](CCC(N)=O)NC(=O)[C@@H](NC(=O)[C@H](C)NC(=O)[C@@H]1CSSC[C@H](NC(=O)[C@@H](N)CCCCNC(=O)CC[C@H](NC(=O)CC[C@H](NC(=O)CCCCCCCCCCCCCCCCCCC(=O)O)C(=O)O)C(=O)O)C(=O)N[C@@H](CC(N)=O)C(=O)N[C@@H]([C@@H](C)O)C(=O)N[C@@H](C)C(=O)N[C@@H]([C@@H](C)O)C(=O)N1)[C@@H](C)O)C(=O)N1CCC[C@H]1C(=O)N[C@@H](CO)C(=O)N[C@@H](CO)C(=O)N[C@H](C(=O)N[C@@H](CC(N)=O)C(=O)N[C@H](C(=O)NCC(=O)N1CCC[C@H]1C(=O)N[C@@H](CCC(=O)O)C(=O)N[C@H](C(=O)N[C@@H](Cc1ccc(O)cc1)C(N)=O)[C@@H](C)O)C(C)C)[C@@H](C)O` [Example 120] (H-K([γGlu-γGlu-C20 diacid])CNTATCATQRLASFLRHSSPNFGAIPSSTNVGPETY-NH2; disulfide 2-7 (inferred); N-terminus assumed), the “Ratio hCT/hAmylin funct.” value in test [1] (setting [3]), in test [1] (setting [4]) and in test [1] (setting [5]) was 8.1 throughout. Also, the EC50 in test [1] came to 0.109 nM. Besides, the IC50 came to 0.076 nM in test [2] and 140 nM at rat calcitonin receptor. Further, the “Ratio hCT/hAmylin binding” value in test [2] (setting [6]), in test [2] (setting [7]), in test [2] (setting [8]), in test [2] (setting [9]), in test [2] (setting [10]) and in test [2] (setting [11]) was 45.3 each time. Moreover, in test [2] (setting [12]), the “Ratio hCT/hAmylin binding” value amounted to 45.3.

Usually EC50 stands for the concentration that produces a half-maximal response. What is called IC50 is the point on the concentration scale where inhibition reaches its midpoint.

The values above are taken from patent publication US9023789B2, “Amylin analogs and pharmaceutical compositions thereof” (Novo Nordisk A/S, priority 2012, dated 2015).
